In ChEMBL document CHEMBL2146412, “Antibacterial spirobisnaphthalenes from the North American cup fungus Urnula craterium” (J Nat Prod, 2012):
≈ marks a conversion by molar mass, not a printed value. Calls of active or inactive are those of the source. The calls are words filed in the database; no cut-off is given here.

Assays:
[1] = test system: J774.A1; assay: Cytotoxicity against mouse J774A1 cells by trypan blue exclusion assay; type: cell-based
[2] = test system: Streptococcus pyogenes; assay: Antibacterial activity against Streptococcus pyogenes UWL; type: functional
[3] = test system: Staphylococcus aureus; assay: Antibacterial activity against methicillin-resistant Staphylococcus aureus MW2; type: functional
[4] = test system: Staphylococcus aureus; assay: Antibacterial activity against Staphylococcus aureus ATCC 29213; type: functional
[5] = test system: Enterococcus faecium; assay: Antibacterial activity against vancomycin-resistant Enterococcus faecium VRE1; type: functional
[6] = test system: Enterococcus faecalis; assay: Antibacterial activity against Enterococcus faecalis ATCC 29212; type: functional
[7] = test system: Escherichia coli; assay: Antibacterial activity against Escherichia coli; type: functional, organism-based
[8] = test system: Pseudomonas aeruginosa; assay: Antibacterial activity against Pseudomonas aeruginosa; type: functional, organism-based

| SMILES | IC50 [1] [µM] | MIC [2] [µg/mL] | MIC [3] [µg/mL] | MIC [4] [µg/mL] | MIC [5] [µg/mL] | MIC [6] [µg/mL] | Activity [7] | Activity [8] |
| --- | --- | --- | --- | --- | --- | --- | --- | --- |
| COc1ccc(C[C@H](N)C(=O)N[C@H]2[C@@H](O)[C@H](n3cnc4c(N(C)C)ncnc43)O[C@@H]2CO)cc1 [PUROMYCIN] | 10 |  |  |  |  |  |  |  |
| CN(C)[C@@H]1C(O)=C(C(N)=O)C(=O)[C@@]2(O)C(O)=C3C(=O)c4c(O)cccc4[C@@](C)(O)[C@H]3C[C@@H]12 [TETRACYCLINE] |  | 0.125 (≈ 0.281 µM) | 0.125 (≈ 0.281 µM) | 0.25 (≈ 0.563 µM) | 4 (≈ 9 µM) | 16 (≈ 36 µM) |  |  |
| O=C1C=C[C@]2(O[C@@H]3c4c2ccc(O)c4C(=O)[C@@H]2O[C@H]32)c2cccc(O)c21 [URNUCRATIN A] | > 100 | 0.5 (≈ 1.44 µM) | 2 (≈ 5.74 µM) | 2 (≈ 5.74 µM) | 1 (≈ 2.87 µM) | 0.5 (≈ 1.44 µM) | inactive | inactive |
| COc1cccc2c1C(=O)C=C[C@]21O[C@@H]2c3c1ccc(O)c3C(=O)[C@@H]1O[C@H]21 [URNUCRATIN B] | > 100 | 4 (≈ 11 µM) | 8 (≈ 22.1 µM) | 8 (≈ 22.1 µM) | 8 (≈ 22.1 µM) | 8 (≈ 22.1 µM) | inactive | inactive |
| COc1cccc2c1C(=O)C=C[C@]21O[C@@H]2c3c1ccc(O)c3[C@H](O)[C@@H]1O[C@@H]12 [URNUCRATIN C] | > 100 | 64 (≈ 176 µM) | 64 (≈ 176 µM) | 64 (≈ 176 µM) | 64 (≈ 176 µM) | 64 (≈ 176 µM) | inactive | inactive |
| CN[C@H](CC(C)C)C(=O)N[C@H]1C(=O)N[C@@H](CC(N)=O)C(=O)N[C@H]2C(=O)N[C@H]3C(=O)N[C@H](C(=O)N[C@H](C(=O)O)c4cc(O)cc(O)c4-c4cc3ccc4O)[C@H](O)c3ccc(c(Cl)c3)Oc3cc2cc(c3O[C@@H]2O[C@H](CO)[C@@H](O)[C@H](O)[C@H]2O[C@H]2C[C@](C)(N)[C@H](O)[C@H](C)O2)Oc2ccc(cc2Cl)[C@H]1O [VANCOMYCIN] |  | 1 (≈ 0.69 µM) |  |  | 64 (≈ 44.2 µM) | 2 (≈ 1.38 µM) |  |  |
